Source: the supplement of paper PMC10307832

Experiments:
[1] = compound: Cc1ccc(NC(=O)c2ccc(CN3CCN(C)CC3)cc2)cc1Nc1nc(-c2cccnc2)cs1 [Masitinib] + COc1cc2c(Oc3ccc(NC(=O)C4(C(=O)Nc5ccc(F)cc5)CC4)cc3F)ccnc2cc1OCCCN1CCOCC1 [Foretinib] (partner 0.25 µM); assay: relative viability (nuclei count vs DMSO), 5 days (fraction); higher = more cells survive
Method in brief: (§1)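 Values are medians from duplicate plates. Each reflects relative viability, defined as the nuclei count of treated wells over that of vehicle wells. Lung cancer cell lines in 1536-well plates were pin-tool dosed one day after seeding with one drug alone or with a fixed anchor-drug dose plus five library-drug doses (not always all listed) in √10 steps, then fixed, stained and imaged at 4× after 5 days.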

[2] = compound: CC1=CC(=CC=C1)NC2=NC(=CS2)C3=CC=NC=C3 + CC1(C)CCC(c2ccc(Cl)cc2)=C(CN2CCN(c3ccc(C(=O)NS(=O)(=O)c4ccc(N[C@H](CCN5CCOCC5)CSc5ccccc5)c(S(=O)(=O)C(F)(F)F)c4)cc3)CC2)C1 [Navitoclax] (partner 0.5 µM); assay: as above
Method in brief: as §1

| Cell Line | relative viability ([1]; first compound 0.01 µM) | relative viability ([1]; first compound 0.03162 µM) | relative viability ([1]; first compound 0.1 µM) | relative viability ([1]; first compound 0.3162 µM) | relative viability ([1]; first compound 1 µM) | relative viability ([2]; first compound 0.08 µM) | relative viability ([2]; first compound 0.253 µM) | relative viability ([2]; first compound 0.8 µM) | relative viability ([2]; first compound 2.53 µM) | relative viability ([2]; first compound 8 µM) |
| --- | --- | --- | --- | --- | --- | --- | --- | --- | --- | --- |
| NCI-H2023 | 0.786 | 0.721 | 0.745 | 0.836 | 0.73 | 0.958 | 0.961 | 0.945 | 0.916 | 0.715 |
| HCC-15 | 0.989 | 0.949 | 1.02 | 1.05 | 0.983 | 0.698 | 0.661 | 0.65 | 0.615 | 0.507 |
| COR-L23 | 0.935 | 1.05 | 1.1 | 1.02 | 0.92 | 0.982 | 0.804 | 0.722 | 0.965 | 0.973 |
| HCC-78 | 0.554 | 0.551 | 0.548 | 0.521 | 0.451 | 0.67 | 0.883 | 0.841 | 0.746 | 0.788 |
| NCI-H1355 | 0.914 | 0.797 | 1.04 | 0.758 | 0.968 | 0.783 | 0.69 | 0.591 | 0.555 | 0.577 |
| NCI-H838 | 0.926 | 0.837 | 1.18 | 0.813 | 1.05 | 0.954 | 1.09 | 1.04 | 1.09 | 0.924 |
| NCI-H2126 | 1.08 | 0.97 | 1.08 | 1.35 | 1.02 | 0.828 | 0.912 | 0.849 | 0.909 | 0.778 |
| BEN | 0.702 |  | 0.745 | 0.705 | 0.461 | 0.0747 | 0.0619 | 0.0712 | 0.0922 | 0.084 |
| EKVX |  | 0.663 | 0.53 | 0.458 | 0.68 | 0.901 | 0.837 | 0.676 | 0.923 | 0.98 |
| NCI-H1299 | 1.04 | 1.06 | 1.09 | 1.09 | 1.07 | 0.981 | 0.99 | 0.986 | 1.07 | 1.01 |
| NCI-H1651 | 0.688 | 0.755 | 0.862 | 0.789 | 0.94 | 0.894 | 1.2 | 0.948 | 1.05 | 0.899 |
| NCI-H2087 | 1.26 | 0.907 | 1.18 | 1.11 | 1.17 | 0.963 | 0.996 | 0.945 | 0.799 | 0.82 |
| NCI-H1944 |  | 0.832 |  | 0.793 | 0.85 | 1.03 | 1.01 | 1.05 | 1.01 | 1.01 |
| LC-2-ad | 0.87 | 0.859 | 1.09 | 0.847 | 0.825 | 0.395 | 0.379 | 0.383 | 0.464 | 0.278 |
| COR-L 105 | 1.01 | 0.906 | 1.06 | 0.901 | 0.726 | 0.573 | 0.779 | 0.634 | 0.809 | 0.456 |
| NCI-H1437 | 1.26 | 1.26 | 1.3 | 1.13 | 1.27 | 1.04 | 1.06 | 1.04 | 1.13 | 0.96 |
| H3255 | 0.745 | 0.922 | 0.648 | 0.934 | 0.748 | 0.573 | 0.304 | 0.561 | 0.533 | 0.496 |
| NCI-H2009 | 1.18 | 1.17 | 1.18 | 1.18 | 1.19 | 1.05 | 1.12 | 1.11 | 1.18 | 1.02 |
| NCI-H1755 |  | 0.927 | 0.975 | 0.897 | 0.828 | 0.923 | 0.937 | 0.846 | 0.824 | 0.679 |
| HOP-62 | 1.02 | 1.04 | 1.22 | 1.17 | 1.14 | 0.865 | 1.01 | 1.13 | 1.11 | 1.01 |
| LOU-NH91 | 0.886 | 0.908 | 0.958 | 0.858 | 0.897 | 0.611 | 0.619 | 0.625 | 0.774 | 0.434 |
| ChaGo-K-1 | 0.961 | 0.863 | 0.924 | 0.967 | 0.907 | 0.9 | 0.806 | 1.06 | 0.411 | 0.849 |

| Cell Line | relative viability ([1]; first compound 0.01 µM) | relative viability ([1]; first compound 0.03162 µM) | relative viability ([1]; first compound 0.1 µM) | relative viability ([1]; first compound 0.3162 µM) | relative viability ([1]; first compound 1 µM) | relative viability ([2]; first compound 0.08 µM) | relative viability ([2]; first compound 0.253 µM) | relative viability ([2]; first compound 0.8 µM) | relative viability ([2]; first compound 2.53 µM) | relative viability ([2]; first compound 8 µM) |
| --- | --- | --- | --- | --- | --- | --- | --- | --- | --- | --- |
| NCI-H23 | 0.945 | 1.05 | 1.04 | 0.564 | 1.01 | 0.822 | 0.832 | 1 | 0.831 | 0.999 |
| PC-3 [JPC-3] | 1.03 | 0.98 | 1.02 | 1.02 | 1 | 0.791 | 0.671 | 0.719 | 0.705 | 0.681 |
| NCI-H520 | 0.899 | 0.937 | 0.987 | 0.695 | 0.762 | 1.04 | 1.09 | 1.15 | 1.12 | 1.15 |
| NCI-H1703 | 0.315 | 0.308 | 0.287 | 0.342 | 0.328 | 0.92 | 1.13 | 1.38 | 1.26 | 1.07 |
| NCI-H1666 |  | 0.889 | 0.91 | 1.03 | 1 | 0.82 | 0.818 | 0.535 | 0.578 | 0.417 |
| NCI-H727 | 0.673 | 1.02 | 1 | 0.891 | 0.85 | 0.458 | 0.372 | 0.383 | 0.345 | 0.269 |
| HARA |  | 0.795 | 0.913 | 0.437 | 0.819 | 1.11 | 1.16 | 1.12 | 1.12 | 1.08 |
| NCI-H647 | 1.34 | 1.19 | 1.46 | 1.04 | 1.19 | 0.799 | 0.887 | 0.938 | 1.1 | 0.942 |
| NCI-H1650 | 0.984 | 0.914 | 1.09 | 0.902 | 1.17 | 1.07 | 0.938 | 0.935 | 1.13 | 0.811 |
| NCI-H2347 | 1.02 | 0.847 | 1.09 | 0.787 | 1.15 | 0.613 | 0.751 | 0.599 | 0.83 | 0.632 |
| A549 | 0.881 | 0.826 | 1 | 0.898 | 1.23 | 1.05 | 1.23 | 1.19 | 1.16 | 0.866 |
| LCLC-97TM1 |  | 0.966 | 0.941 | 1.08 | 0.874 |  |  | 0.641 | 0.385 | 0.418 |
| EPLC-272H | 0.63 | 0.64 | 0.669 | 0.875 | 0.645 | 1.02 |  | 0.871 |  | 0.979 |
| NCI-H1975 | 1.02 | 0.96 | 0.924 |  | 0.998 | 1.16 | 1.13 | 0.879 | 0.895 | 0.726 |
| NCI-H3122 | 0.89 | 1 | 1.05 | 1.01 | 0.887 | 1.02 | 1.04 | 1.07 | 1.08 | 1.04 |
| NCI-H441 | 0.909 | 0.976 | 1.12 | 1.48 | 0.691 | 0.327 | 0.42 | 0.673 | 0.64 | 0.777 |
| NCI-H1395 | 0.969 | 1 | 1.06 | 0.754 | 0.915 | 0.984 | 1.1 | 1.04 | 0.971 | 0.993 |
| IA-LM | 1.24 | 1.09 | 1.13 | 1.12 | 1.36 | 0.74 |  | 0.769 | 0.439 | 0.401 |
| SK-MES-1 | 1 | 0.861 | 1.1 | 0.572 | 0.841 | 0.94 | 1.02 | 1.1 | 1.06 | 1.08 |
| PC-14 | 0.809 | 0.831 | 0.857 | 0.957 | 0.949 | 0.922 | 1.01 | 0.892 | 0.933 | 0.439 |
| CAL-12T | 1.05 | 1.16 | 1.15 | 1.07 | 0.933 | 1.19 | 1.06 | 1.16 | 1.05 | 1.24 |
| EBC-1 | 0.112 | 0.096 | 0.108 | 0.0908 | 0.126 | 0.376 | 0.381 | 0.516 | 0.391 | 0.227 |
